Data as given in PubChem BioAssay AID342 (DTP/NCI, 2004).
Where “and” joins values, the source holds several entries; their conditions need not be identical. Equal entries are not always repeated.

Tested on: Swiss mice, Sarcoma 180 sc, mean tumor weight T/C
Experiment: NCI In Vivo Anticancer Drug Screen. Data for tumor model Sarcoma 180 (subcutaneous) in Swiss mice
Conditions: endpoint: mean tumor weight, higher = larger tumour
Method in brief: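 Tumor-bearing mice, transplantable tumor; readout survival or tumor size; result = T/C, treated vs vehicle control.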

[1] = dose: 62.5 mg/kg/injection, schedule: Q#A X014 (ip), vehicle: carboxymethylcellulose (CMC)

O=C(NC(CO)C(=O)O)C(Cl)Cl (stereo unspecified)
T/C (dose: 500.0 mg/kg/injection, schedule: Q#A X014 (ip), vehicle: methylcellulose (MC)): 47 % of control
T/C (dose: 1000.0 mg/kg/injection, schedule: Q#A X014 (ip), vehicle: methylcellulose (MC)): 52 % of control
T/C (dose: 1500.0 mg/kg/injection, schedule: Q#A X014 (ip), vehicle: methylcellulose (MC)): 60 % of control
T/C (dose: 2000.0 mg/kg/injection, schedule: Q#A X014 (ip), vehicle: methylcellulose (MC)): 66 % of control
T/C (dose: 2500.0 mg/kg/injection, schedule: Q#A X014 (ip), vehicle: methylcellulose (MC)): 68 % of control

COC1C(OC(N)=O)C(O)C(Oc2ccc3c(O)c(NC(=O)c4ccc(O)c(CC=C(C)C)c4)c(=O)oc3c2C)OC1(C)C (stereo unspecified)
T/C (dose: 200.0 mg/kg/injection, schedule: Q01DX007 (ip), vehicle: saline): 102 % of control

CCCCCCCCCCCCCCCCCC1=NC(C)CC(C)(C)O1 (stereo unspecified)
T/C (dose: 187.5 mg/kg/injection, schedule: Q#A X014 (ip), vehicle: saline): 63 % of control

Cc1cc(C(=O)NN)c(C#N)c(=O)[nH]1
T/C (dose: 111.0 mg/kg/injection, schedule: Q01DX007 (ip), vehicle: carboxymethylcellulose (CMC)): 82 % of control
T/C (dose: 166.0 mg/kg/injection, schedule: Q01DX007 (ip), vehicle: carboxymethylcellulose (CMC)): 87 % of control
T/C (dose: 250.0 mg/kg/injection, schedule: Q01DX007 (ip), vehicle: carboxymethylcellulose (CMC)): 30 % of control
T/C (dose: 375.0 mg/kg/injection, schedule: Q01DX007 (ip), vehicle: carboxymethylcellulose (CMC)): 46 % of control

O=C(O)C(O)C(F)(F)F (stereo unspecified)
T/C (dose: 15.5 mg/kg/injection, schedule: Q#A X014 (ip), vehicle: saline): 111 % of control
T/C (dose: 62.5 mg/kg/injection, schedule: Q#A X014 (ip), vehicle: saline): 90 % of control
T/C (dose: 125.0 mg/kg/injection, schedule: Q#A X014 (ip), vehicle: saline): 123 % of control

CCCS/C(N)=N/N=C/c1ccc([N+](=O)[O-])o1
T/C (dose: 13.5 mg/kg/injection, schedule: Q#A X014 (ip), vehicle: water): 81 % of control
T/C (dose: 20.0 mg/kg/injection, schedule: Q#A X014 (ip), vehicle: water): 53 % of control
T/C (dose: 27.0 mg/kg/injection, schedule: Q01DX007 (ip), vehicle: other): 67 % of control
T/C (dose: 27.0 mg/kg/injection, schedule: Q01DX007 (ip), vehicle: water): 61 % of control
T/C (dose: 30.0 mg/kg/injection, schedule: Q#A X014 (ip), vehicle: water): 34 % of control
T/C (dose: 40.0 mg/kg/injection, schedule: Q01DX007 (ip), vehicle: water): 45 % of control
T/C (dose: 60.0 mg/kg/injection, schedule: Q01DX007 (ip), vehicle: water): 59 % of control

CCCCSc1ncnc2nc[nH]c12
T/C (dose: 44.0 mg/kg/injection, schedule: Q01DX007 (ip), vehicle: carboxymethylcellulose (CMC)): 55 % of control
T/C (dose: 51.0 mg/kg/injection, schedule: Q01DX007 (ip), vehicle: carboxymethylcellulose (CMC)): 53 % of control
T/C (dose: 93.0 mg/kg/injection, schedule: Q01DX007 (ip), vehicle: carboxymethylcellulose (CMC)): 41 % of control

CCCCCCCCCCCCCCCCCC1=NCCN1CCN
T/C (dose: 22.0 mg/kg/injection, schedule: Q#A X014 (ip), vehicle: saline): 74 % of control and 84 % of control
T/C (dose: 50.0 mg/kg/injection, schedule: Q#A X014 (ip), vehicle: saline): 33 % of control

Nc1nc(=O)n(C2CC(O)C(CO)O2)cc1Br (stereo unspecified)
T/C [1]: 58 % of control
T/C (dose: 125.0 mg/kg/injection, schedule: Q#A X014 (ip), vehicle: carboxymethylcellulose (CMC)): 57 % of control
T/C (dose: 250.0 mg/kg/injection, schedule: Q#A X014 (ip), vehicle: carboxymethylcellulose (CMC)): 50 % of control

NC(=O)c1[nH]cnc1/N=N/N(Cc1ccccc1)Cc1ccccc1
T/C (dose: 15.5 mg/kg/injection, schedule: Q#A X014 (ip), vehicle: carboxymethylcellulose (CMC)): 49 % of control
T/C (dose: 31.0 mg/kg/injection, schedule: Q#A X014 (ip), vehicle: carboxymethylcellulose (CMC)): 59 % of control
T/C [1]: 61 % of control

COCCOC1=C(N2CC2)C(=O)C(OCCOC)=C(N2CC2)C1=O
T/C (dose: 0.89 mg/kg/injection, schedule: Q01DX007 (sc), vehicle: saline): 61 % of control
T/C (dose: 1.3 mg/kg/injection, schedule: Q01DX007 (sc), vehicle: saline): 72 % of control
T/C (dose: 1.6 mg/kg/injection, schedule: Q01DX007 (oral), vehicle: saline): 95 % of control
T/C (dose: 2.0 mg/kg/injection, schedule: Q01DX001 (ip), vehicle: saline): 97 % of control
T/C (dose: 2.0 mg/kg/injection, schedule: Q01DX006 (iv), vehicle: saline): 71 % of control
T/C (dose: 2.0 mg/kg/injection, schedule: Q01DX007 (im), vehicle: saline): 59 % of control
T/C (dose: 2.0 mg/kg/injection, schedule: Q01DX007 (ip), vehicle: saline): 56 % of control
T/C (dose: 2.0 mg/kg/injection, schedule: Q01DX007 (sc), vehicle: saline): 45 % of control
T/C (dose: 2.0 mg/kg/injection, schedule: Q03DX003 (ip), vehicle: saline): 64 % of control
T/C (dose: 2.4 mg/kg/injection, schedule: Q01DX007 (oral), vehicle: saline): 75 % of control
T/C (dose: 3.0 mg/kg/injection, schedule: Q01DX001 (ip), vehicle: saline): 48 % of control
T/C (dose: 3.0 mg/kg/injection, schedule: Q01DX006 (iv), vehicle: saline): 48 % of control
T/C (dose: 3.0 mg/kg/injection, schedule: Q01DX007 (im), vehicle: saline): 59 % of control
T/C (dose: 3.0 mg/kg/injection, schedule: Q01DX007 (ip), vehicle: saline): 37 % of control
T/C (dose: 3.0 mg/kg/injection, schedule: Q01DX007 (sc), vehicle: saline): 30 % of control
T/C (dose: 3.0 mg/kg/injection, schedule: Q03DX003 (ip), vehicle: saline): 50 % of control
T/C (dose: 3.6 mg/kg/injection, schedule: Q01DX007 (oral), vehicle: saline): 73 % of control
T/C (dose: 4.0 mg/kg/injection, schedule: Q01DX006 (iv), vehicle: saline): 21 % of control
T/C (dose: 4.0 mg/kg/injection, schedule: Q03DX003 (ip), vehicle: saline): 51 % of control
T/C (dose: 5.3 mg/kg/injection, schedule: Q01DX007 (oral), vehicle: saline): 38 % of control
T/C (dose: 6.0 mg/kg/injection, schedule: Q01DX001 (ip), vehicle: saline): 83 % of control
T/C (dose: 6.0 mg/kg/injection, schedule: Q03DX003 (ip), vehicle: saline): 33 % of control
T/C (dose: 8.0 mg/kg/injection, schedule: Q01DX007 (oral), vehicle: saline): 34 % of control
T/C (dose: 12.0 mg/kg/injection, schedule: Q01DX001 (ip), vehicle: saline): 32 % of control

CN(C)[C@@H]1C(=O)C(C(N)=O)=C(O)[C@@]2(O)C(=O)C3=C(O)c4c(O)cccc4C[C@H]3C[C@@H]12
T/C (dose: 20.0 mg/kg/injection, schedule: Q#A X014 (ip), vehicle: other): 64 % of control
T/C (dose: 30.0 mg/kg/injection, schedule: Q#A X014 (ip), vehicle: other): 61 % of control
T/C (dose: 45.0 mg/kg/injection, schedule: Q#A X014 (ip), vehicle: other): 31 % of control

Cc1cc(N(CCCl)CCCl)ccc1N=Nc1ccccc1C(=O)O
T/C (dose: 5.3 mg/kg/injection, schedule: Q01DX007 (ip), vehicle: carboxymethylcellulose (CMC)): 33 % of control
T/C (dose: 8.0 mg/kg/injection, schedule: Q01DX007 (ip), vehicle: carboxymethylcellulose (CMC)): 50 % of control
T/C (dose: 12.0 mg/kg/injection, schedule: Q01DX007 (ip), vehicle: carboxymethylcellulose (CMC)): 61 % of control
T/C (dose: 18.0 mg/kg/injection, schedule: Q01DX007 (ip), vehicle: carboxymethylcellulose (CMC)): 27 % of control

COc1ccc2c(c[n+](C)c3c4cc5c(cc4ccc23)OCO5)c1OC
T/C (dose: 50.0 mg/kg/injection, schedule: Q01DX007 (ip), vehicle: carboxymethylcellulose (CMC)): 60 % of control
T/C (dose: 100.0 mg/kg/injection, schedule: Q01DX007 (ip), vehicle: carboxymethylcellulose (CMC)): 83 % of control

CN(C)NCCC#N
T/C (dose: 15.0 mg/kg/injection, schedule: Q#A X014 (ip), vehicle: methylcellulose (MC)): 91 % of control
T/C (dose: 22.5 mg/kg/injection, schedule: Q#A X014 (ip), vehicle: methylcellulose (MC)): 52 % of control
T/C (dose: 33.5 mg/kg/injection, schedule: Q#A X014 (ip), vehicle: methylcellulose (MC)): 49 % of control
T/C (dose: 50.0 mg/kg/injection, schedule: Q#A X014 (ip), vehicle: methylcellulose (MC)): 39 % of control

N#[N+]c1nc[nH]c1C(N)=O
T/C (dose: 0.62 mg/kg/injection, schedule: Q#A X014 (ip), vehicle: methylcellulose (MC)): 61 % of control
T/C (dose: 1.25 mg/kg/injection, schedule: Q#A X014 (ip), vehicle: methylcellulose (MC)): 53 % of control
T/C (dose: 2.5 mg/kg/injection, schedule: Q#A X014 (ip), vehicle: methylcellulose (MC)): 55 % of control

CCC(c1ccc2cc(OC)ccc2c1)C(C)(C)C(=O)F (stereo unspecified)
T/C (dose: 55.0 mg/kg/injection, schedule: Q01DX007 (sc), vehicle: steriod suspending solution): 35 % of control and 52 % of control
T/C (dose: 83.0 mg/kg/injection, schedule: Q01DX007 (sc), vehicle: steriod suspending solution): 31 % of control and 49 % of control
T/C (dose: 125.0 mg/kg/injection, schedule: Q01DX007 (sc), vehicle: steriod suspending solution): 27 % of control and 39 % of control
T/C (dose: 188.0 mg/kg/injection, schedule: Q01DX007 (sc), vehicle: steriod suspending solution): 39 % of control and 40 % of control
